From PubChem BioAssay (NCI)
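48-hour exposure; five concentrations; linearly interpolated endpoints. GI50: concentration for 50% inhibition of growth. The concentration for full growth arrest is given as TGI.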

Columns and labels:
Test in all cases: NCI-60 cell line screen, 48 h
786-0 renal = system: 786-0 renal
A498 renal = system: A498 renal
A549 NSCLC = system: A549 NSCLC
ACHN renal = system: ACHN renal
BT-549 breast = system: BT-549 breast
CAKI-1 renal = system: CAKI-1 renal
CCRF-CEM leukemia = system: CCRF-CEM leukemia
COLO 205 colon = system: COLO 205 colon
DU-145 prostate = system: DU-145 prostate
EKVX NSCLC = system: EKVX NSCLC
HCC-2998 colon = system: HCC-2998 colon
HCT-116 colon = system: HCT-116 colon
HCT-15 colon = system: HCT-15 colon
HL-60(TB) leukemia = system: HL-60(TB) leukemia
HOP-62 NSCLC = system: HOP-62 NSCLC
HOP-92 NSCLC = system: HOP-92 NSCLC
HS 578T breast = system: HS 578T breast
HT29 colon = system: HT29 colon
IGROV1 ovarian = system: IGROV1 ovarian
K-562 leukemia = system: K-562 leukemia
KM12 colon = system: KM12 colon
LOX IMVI melanoma = system: LOX IMVI melanoma
M14 melanoma = system: M14 melanoma
MALME-3M melanoma = system: MALME-3M melanoma
MCF7 breast = system: MCF7 breast
MDA-MB-231 breast = system: MDA-MB-231 breast
MDA-MB-435 = system: MDA-MB-435
MDA-MB-468 breast = system: MDA-MB-468 breast
MOLT-4 leukemia = system: MOLT-4 leukemia
NCI-H226 lung = system: NCI-H226 lung
NCI-H23 lung = system: NCI-H23 lung
NCI-H460 lung = system: NCI-H460 lung
NCI-H522 lung = system: NCI-H522 lung
OVCAR-3 ovarian = system: OVCAR-3 ovarian
OVCAR-4 ovarian = system: OVCAR-4 ovarian
OVCAR-5 ovarian = system: OVCAR-5 ovarian
OVCAR-8 ovarian = system: OVCAR-8 ovarian
PC-3 prostate = system: PC-3 prostate
RPMI-8226 leukemia = system: RPMI-8226 leukemia
RXF 393 renal = system: RXF 393 renal
SF-268 CNS = system: SF-268 CNS
SF-295 CNS = system: SF-295 CNS
SF-539 CNS = system: SF-539 CNS
SK-MEL-28 melanoma = system: SK-MEL-28 melanoma
SK-MEL-5 melanoma = system: SK-MEL-5 melanoma
SK-OV-3 ovarian = system: SK-OV-3 ovarian
SN12C renal = system: SN12C renal
SNB-19 CNS = system: SNB-19 CNS
SNB-75 CNS = system: SNB-75 CNS
SR leukemia = system: SR leukemia
SW-620 colon = system: SW-620 colon
TK-10 renal = system: TK-10 renal
U251 CNS = system: U251 CNS
UACC-257 melanoma = system: UACC-257 melanoma
UACC-62 melanoma = system: UACC-62 melanoma
UO-31 renal = system: UO-31 renal

## Clc1cccc(-c2ccc(OCCCN3CCN(c4ccncc4)CC3)cc2)c1
786-0 renal
  GI50: 1.7 µM
  TGI: 3.07 µM
A498 renal
  GI50: 5.64 µM
  TGI: 19.3 µM
A549 NSCLC
  GI50: 1.71 µM
  TGI: 3.26 µM
ACHN renal
  GI50: 1.75 µM
  TGI: 3.16 µM
BT-549 breast
  GI50: 2.5 µM
  TGI: 5.92 µM
CAKI-1 renal
  GI50: 1.67 µM
  TGI: 3.33 µM
CCRF-CEM leukemia
  GI50: 1.49 µM
  TGI: 3.88 µM
COLO 205 colon
  GI50: 1.64 µM
  TGI: 3.08 µM
DU-145 prostate
  GI50: 2.09 µM
  TGI: 4.79 µM
EKVX NSCLC
  GI50: 1.85 µM
  TGI: 4.65 µM
HCC-2998 colon
  GI50: 1.82 µM
  TGI: 3.25 µM
HCT-116 colon
  GI50: 1.5 µM
  TGI: 3.01 µM
HCT-15 colon
  GI50: 1.23 µM
  TGI: 2.55 µM
HL-60(TB) leukemia
  GI50: 1.7 µM
  TGI: 4.48 µM
HOP-62 NSCLC
  GI50: 1.67 µM
  TGI: 3.12 µM
HOP-92 NSCLC
  GI50: 1.28 µM
  TGI: 4.28 µM
HS 578T breast
  GI50: 1.96 µM
  TGI: 5.11 µM
HT29 colon
  GI50: 1.55 µM
  TGI: 3.18 µM
IGROV1 ovarian
  GI50: 1.71 µM
  TGI: 3.22 µM
K-562 leukemia
  GI50: 1.63 µM
  TGI: 9.43 µM
KM12 colon
  GI50: 1.77 µM
  TGI: 3.28 µM
LOX IMVI melanoma
  GI50: 1.62 µM
  TGI: 3.03 µM
M14 melanoma
  GI50: 1.76 µM
  TGI: 3.26 µM
MALME-3M melanoma
  GI50: 1.76 µM
  TGI: 3.22 µM
MCF7 breast
  GI50: 1.5 µM
  TGI: 3.04 µM
MDA-MB-231 breast
  GI50: 1.57 µM
  TGI: 2.98 µM
MDA-MB-435
  GI50: 1.7 µM
  TGI: 3.16 µM
MDA-MB-468 breast
  GI50: 1.66 µM
  TGI: 3.26 µM
MOLT-4 leukemia
  GI50: 2.04 µM
  TGI: 4.71 µM
NCI-H226 lung
  GI50: 3.51 µM
  TGI: 15.1 µM
NCI-H23 lung
  GI50: 2.07 µM
  TGI: 5.09 µM
NCI-H460 lung
  GI50: 1.74 µM
  TGI: 3.31 µM
NCI-H522 lung
  GI50: 1.87 µM
  TGI: 3.79 µM
OVCAR-3 ovarian
  GI50: 1.79 µM
  TGI: 3.56 µM
OVCAR-4 ovarian
  GI50: 2.6 µM
  TGI: 8.32 µM
OVCAR-5 ovarian
  GI50: 1.93 µM
  TGI: 4.35 µM
OVCAR-8 ovarian
  GI50: 2.34 µM
  TGI: 5.81 µM
PC-3 prostate
  GI50: 1.94 µM
  TGI: 6.15 µM
RPMI-8226 leukemia
  GI50: 1.89 µM
  TGI: 4.91 µM
RXF 393 renal
  GI50: 1.24 µM
  TGI: 2.66 µM
SF-268 CNS
  GI50: 2.08 µM
  TGI: 4.69 µM
SF-295 CNS
  GI50: 1.75 µM
  TGI: 3.24 µM
SF-539 CNS
  GI50: 1.49 µM
  TGI: 2.85 µM
SK-MEL-28 melanoma
  GI50: 1.82 µM
  TGI: 3.52 µM
SK-MEL-5 melanoma
  GI50: 1.65 µM
  TGI: 3.04 µM
SK-OV-3 ovarian
  GI50: 2.81 µM
  TGI: 10.4 µM
SN12C renal
  GI50: 1.7 µM
  TGI: 3.36 µM
SNB-19 CNS
  GI50: 1.94 µM
  TGI: 3.98 µM
SNB-75 CNS
  GI50: 1.87 µM
  TGI: 7.27 µM
SR leukemia
  GI50: 0.886 µM
  TGI: > 100 µM
SW-620 colon
  GI50: 1.7 µM
  TGI: 3.27 µM
TK-10 renal
  GI50: 2.73 µM
  TGI: 8.21 µM
U251 CNS
  GI50: 1.57 µM
  TGI: 2.99 µM
UACC-257 melanoma
  GI50: 2.08 µM
  TGI: 4.14 µM
UACC-62 melanoma
  GI50: 1.73 µM
  TGI: 3.17 µM
UO-31 renal
  GI50: 1.65 µM
  TGI: 3.6 µM
